# Patent publication US20240269139A1, “COMPOUNDS FOR TARGETED PROTEIN DEGRADATION OF KINASES” (DANA-FARBER CANCER INSTITUTE, INC., priority 2020, published 2024)
# Read-outs that look alike come from different tables or passages of the source.
# Assays:
# Format in all cases: cell-based
# [1] = target: protein kinases (human kinome) (Homo sapiens, UniProt O94921)
# [2] = target: T1, protein kinases (human kinome) (Homo sapiens, UniProt O95835); conditions: LATS1 O95835
# T1 sequence (O95835 1-1130): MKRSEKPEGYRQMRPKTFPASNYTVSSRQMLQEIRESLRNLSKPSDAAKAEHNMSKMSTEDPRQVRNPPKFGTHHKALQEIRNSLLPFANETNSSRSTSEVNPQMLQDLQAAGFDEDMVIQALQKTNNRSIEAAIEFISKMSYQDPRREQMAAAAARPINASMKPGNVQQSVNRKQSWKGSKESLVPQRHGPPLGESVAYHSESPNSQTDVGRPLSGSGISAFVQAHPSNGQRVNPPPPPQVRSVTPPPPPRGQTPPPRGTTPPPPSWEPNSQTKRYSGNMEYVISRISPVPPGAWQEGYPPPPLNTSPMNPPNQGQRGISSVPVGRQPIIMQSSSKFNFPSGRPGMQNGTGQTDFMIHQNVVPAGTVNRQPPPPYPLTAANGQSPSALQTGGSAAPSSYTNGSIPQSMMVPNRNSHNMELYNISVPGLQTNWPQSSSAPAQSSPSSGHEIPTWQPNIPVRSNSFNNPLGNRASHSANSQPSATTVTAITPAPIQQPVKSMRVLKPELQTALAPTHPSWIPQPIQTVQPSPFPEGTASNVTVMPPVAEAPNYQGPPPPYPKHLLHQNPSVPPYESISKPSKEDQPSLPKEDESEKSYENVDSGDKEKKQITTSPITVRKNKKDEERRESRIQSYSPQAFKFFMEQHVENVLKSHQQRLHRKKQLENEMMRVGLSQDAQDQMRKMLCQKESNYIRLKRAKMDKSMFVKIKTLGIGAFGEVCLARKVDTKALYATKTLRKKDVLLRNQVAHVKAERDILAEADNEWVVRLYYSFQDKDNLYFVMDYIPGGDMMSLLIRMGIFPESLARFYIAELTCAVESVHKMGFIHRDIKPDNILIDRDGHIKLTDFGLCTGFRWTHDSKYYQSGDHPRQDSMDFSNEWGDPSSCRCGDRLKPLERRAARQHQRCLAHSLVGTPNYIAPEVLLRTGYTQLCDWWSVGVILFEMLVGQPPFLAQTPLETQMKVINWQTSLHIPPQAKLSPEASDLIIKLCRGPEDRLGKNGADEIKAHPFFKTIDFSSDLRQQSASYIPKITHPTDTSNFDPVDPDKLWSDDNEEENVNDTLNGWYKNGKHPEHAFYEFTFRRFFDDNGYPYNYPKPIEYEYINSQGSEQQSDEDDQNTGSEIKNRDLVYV
# [3] = target: protein kinases (human kinome) (Homo sapiens, UniProt P23443)
# [4] = target: protein kinases (human kinome) (Homo sapiens, UniProt P53350); conditions: PLK1 P53350, experiment wp133
# [5] = target: protein kinases (human kinome) (Homo sapiens, UniProt P54646); conditions: for logFC: PRKAA2 (P54646)
# [6] = target: protein kinases (human kinome) (Homo sapiens, UniProt Q15131)
# [7] = target: protein kinases (human kinome) (Homo sapiens, UniProt Q92918)
# protein kinases (human kinome) (Homo sapiens, UniProt Q92918), sequence (Q92918 whole entry): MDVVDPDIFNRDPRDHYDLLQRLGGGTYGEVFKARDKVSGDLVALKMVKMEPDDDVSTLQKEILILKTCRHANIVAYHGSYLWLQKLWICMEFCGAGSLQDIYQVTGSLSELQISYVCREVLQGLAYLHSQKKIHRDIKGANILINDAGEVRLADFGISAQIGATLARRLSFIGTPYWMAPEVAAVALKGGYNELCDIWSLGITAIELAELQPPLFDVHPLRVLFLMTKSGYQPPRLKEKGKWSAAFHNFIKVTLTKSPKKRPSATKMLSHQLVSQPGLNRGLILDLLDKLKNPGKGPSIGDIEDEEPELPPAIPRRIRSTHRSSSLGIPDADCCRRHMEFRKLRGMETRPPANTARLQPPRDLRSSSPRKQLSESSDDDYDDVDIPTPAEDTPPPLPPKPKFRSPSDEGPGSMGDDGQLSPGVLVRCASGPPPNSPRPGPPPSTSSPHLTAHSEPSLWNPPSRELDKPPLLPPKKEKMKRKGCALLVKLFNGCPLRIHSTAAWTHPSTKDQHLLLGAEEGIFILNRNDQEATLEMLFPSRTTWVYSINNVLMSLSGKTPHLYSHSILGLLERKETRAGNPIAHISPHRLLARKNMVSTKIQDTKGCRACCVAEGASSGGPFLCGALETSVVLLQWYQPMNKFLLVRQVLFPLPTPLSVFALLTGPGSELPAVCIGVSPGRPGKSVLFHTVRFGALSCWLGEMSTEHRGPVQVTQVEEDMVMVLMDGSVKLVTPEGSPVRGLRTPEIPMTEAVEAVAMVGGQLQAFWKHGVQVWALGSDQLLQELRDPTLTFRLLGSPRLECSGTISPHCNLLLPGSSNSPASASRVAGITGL
# protein kinases (human kinome) (Homo sapiens, UniProt P53350), sequence (P53350 whole entry): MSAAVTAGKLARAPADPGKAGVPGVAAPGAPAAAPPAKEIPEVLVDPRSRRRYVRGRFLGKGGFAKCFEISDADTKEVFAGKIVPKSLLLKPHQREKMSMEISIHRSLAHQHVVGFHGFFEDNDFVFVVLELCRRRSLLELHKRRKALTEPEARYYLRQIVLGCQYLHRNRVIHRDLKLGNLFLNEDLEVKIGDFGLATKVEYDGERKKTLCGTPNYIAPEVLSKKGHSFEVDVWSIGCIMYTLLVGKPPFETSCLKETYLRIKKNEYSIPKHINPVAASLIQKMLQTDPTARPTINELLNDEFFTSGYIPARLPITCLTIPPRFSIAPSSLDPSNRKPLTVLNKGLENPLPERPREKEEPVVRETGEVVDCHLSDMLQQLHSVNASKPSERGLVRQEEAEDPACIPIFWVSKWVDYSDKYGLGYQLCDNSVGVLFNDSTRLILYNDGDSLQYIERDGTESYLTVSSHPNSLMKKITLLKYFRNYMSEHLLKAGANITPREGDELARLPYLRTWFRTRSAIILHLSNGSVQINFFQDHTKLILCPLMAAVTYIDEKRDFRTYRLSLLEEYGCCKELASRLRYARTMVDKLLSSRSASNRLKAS
# protein kinases (human kinome) (Homo sapiens, UniProt P54646), sequence (P54646 whole entry): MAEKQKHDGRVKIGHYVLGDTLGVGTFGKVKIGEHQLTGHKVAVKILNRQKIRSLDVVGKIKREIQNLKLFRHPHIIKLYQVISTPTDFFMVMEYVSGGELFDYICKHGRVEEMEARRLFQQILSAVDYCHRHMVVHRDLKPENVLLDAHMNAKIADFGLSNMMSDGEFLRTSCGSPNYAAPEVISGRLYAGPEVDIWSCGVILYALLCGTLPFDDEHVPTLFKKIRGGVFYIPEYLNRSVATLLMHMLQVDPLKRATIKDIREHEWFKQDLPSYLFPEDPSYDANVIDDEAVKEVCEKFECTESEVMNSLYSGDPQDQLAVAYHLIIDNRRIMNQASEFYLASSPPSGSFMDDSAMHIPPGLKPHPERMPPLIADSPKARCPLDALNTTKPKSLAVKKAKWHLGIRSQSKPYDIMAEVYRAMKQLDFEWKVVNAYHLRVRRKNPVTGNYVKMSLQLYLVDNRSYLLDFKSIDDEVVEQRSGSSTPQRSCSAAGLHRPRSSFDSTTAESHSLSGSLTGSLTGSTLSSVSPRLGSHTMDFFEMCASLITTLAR
# protein kinases (human kinome) (Homo sapiens, UniProt O94921), sequence (O94921 whole entry): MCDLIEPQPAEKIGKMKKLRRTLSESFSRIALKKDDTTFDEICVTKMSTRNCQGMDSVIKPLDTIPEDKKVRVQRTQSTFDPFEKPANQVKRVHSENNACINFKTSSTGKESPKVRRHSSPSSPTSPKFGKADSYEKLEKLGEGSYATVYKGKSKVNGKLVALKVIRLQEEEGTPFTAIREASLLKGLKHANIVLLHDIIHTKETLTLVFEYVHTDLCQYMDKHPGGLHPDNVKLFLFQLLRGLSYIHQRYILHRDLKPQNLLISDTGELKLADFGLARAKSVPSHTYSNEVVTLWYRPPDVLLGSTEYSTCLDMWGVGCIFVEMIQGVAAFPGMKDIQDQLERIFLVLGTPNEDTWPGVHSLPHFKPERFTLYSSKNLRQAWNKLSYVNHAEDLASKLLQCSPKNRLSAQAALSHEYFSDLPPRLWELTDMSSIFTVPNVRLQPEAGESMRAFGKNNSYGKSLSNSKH
# protein kinases (human kinome) (Homo sapiens, UniProt Q15131), sequence (Q15131 whole entry): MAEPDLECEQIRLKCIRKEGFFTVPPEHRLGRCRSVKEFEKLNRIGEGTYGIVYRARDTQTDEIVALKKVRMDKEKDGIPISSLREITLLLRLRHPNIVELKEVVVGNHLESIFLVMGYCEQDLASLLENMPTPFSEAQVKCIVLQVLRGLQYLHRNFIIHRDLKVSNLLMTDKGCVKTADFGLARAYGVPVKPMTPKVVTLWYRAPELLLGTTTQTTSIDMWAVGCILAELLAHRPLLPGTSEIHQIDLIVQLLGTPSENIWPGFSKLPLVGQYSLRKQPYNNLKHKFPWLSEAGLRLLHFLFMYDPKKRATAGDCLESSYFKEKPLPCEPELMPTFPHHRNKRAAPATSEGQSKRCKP
# protein kinases (human kinome) (Homo sapiens, UniProt P23443), sequence (P23443 whole entry): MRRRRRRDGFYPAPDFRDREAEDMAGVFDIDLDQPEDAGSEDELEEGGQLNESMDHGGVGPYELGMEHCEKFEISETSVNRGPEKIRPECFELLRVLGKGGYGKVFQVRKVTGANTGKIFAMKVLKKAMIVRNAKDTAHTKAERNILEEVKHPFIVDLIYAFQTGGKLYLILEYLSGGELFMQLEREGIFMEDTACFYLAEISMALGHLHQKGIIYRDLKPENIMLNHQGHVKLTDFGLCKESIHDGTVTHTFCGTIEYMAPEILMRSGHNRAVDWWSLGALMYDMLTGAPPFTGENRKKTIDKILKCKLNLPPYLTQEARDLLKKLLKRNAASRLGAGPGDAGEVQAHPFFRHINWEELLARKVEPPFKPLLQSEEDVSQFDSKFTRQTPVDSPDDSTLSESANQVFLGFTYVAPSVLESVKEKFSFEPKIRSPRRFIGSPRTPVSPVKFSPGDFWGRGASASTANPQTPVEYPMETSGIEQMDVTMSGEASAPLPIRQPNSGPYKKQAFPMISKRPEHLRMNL
structure (smiles),measurement,setting,value
CC(C)S(=O)(=O)c1ccccc1Nc1nc(Nc2ccc(N3CCN(CCOCCNC(=O)CNc4cccc5c4C(=O)N(C4CCC(=O)NC4=O)C5=O)CC3)cc2)ncc1Cl (stereo not drawn) [SK.3.91],logFC,"[1]; CDK14 (O94921-1), experiment wp172",−0.8176
same,logFC of CDK14 (O94921-1),[1]; Experiment wp172,−0.8176
same,logFC,[2]; experiment wp105,−0.3335
same,logFC LATS1,[2]; experiment wp105,−0.3335
same,logFC,[2]; experiment wp107,−0.4609
same,logFC LATS1,[2]; experiment wp107,−0.4609
same,logFC,"[2]; experiment wp160, 4 hr",−0.3463
same,logFC LATS1,"[2]; experiment wp160, 4 hr",−0.3463
same,logFC of RPS6KB1 (P23443-1),[3]; Experiment wp107,−0.4197
same,logFC,"[3]; RPS6KB1 (P23443-1), experiment wp107",−0.4197
same,logFC,[4]; 1 hr,−0.5591
same,logFC PLK1,[4]; 1 hr,−0.5591
same,logFC,[4]; 2 hr,−0.5804
same,logFC PLK1,[4]; 2 hr,−0.5804
same,logFC,[4]; 4 hr,−0.7482
same,logFC PLK1,[4]; 4 hr,−0.7482
same,logFC of PRKAA2 (P54646),[5]; Experiment wp172,−0.926
same,logFC,[5]; experiment wp105,−0.9029
same,logFC,[5]; experiment wp172,−0.926
same,logFC of PRKAA2 (P54646),[5]; experiment wp105,−0.9029
same,logFC,"[6]; CDK10 (Q15131-1), experiment wp133, 4 hr",−0.544
same,logFC of CDK10 (Q15131-1),"[6]; experiment wp133, 4 hr",−0.544
same,logFC MAP4K1 (Q92918),"[7]; experiment wp016, 1 uM",−0.6677
same,logFC MAP4K1 (Q92918),[7]; experiment wp103,−0.5099
same,logFC MAP4K1 (Q92918),[7]; experiment wp107,−0.7036
same,logFC MAP4K1 (Q92918),"[7]; experiment wp133, 4 hr",−0.5528
same,logFC MAP4K1 (Q92918),"[7]; experiment wp160, 4 hr",−0.4817
